Target: T1, human CCR1 (Homo sapiens, UniProt P32246)
T1 sequence (P32246 1-355): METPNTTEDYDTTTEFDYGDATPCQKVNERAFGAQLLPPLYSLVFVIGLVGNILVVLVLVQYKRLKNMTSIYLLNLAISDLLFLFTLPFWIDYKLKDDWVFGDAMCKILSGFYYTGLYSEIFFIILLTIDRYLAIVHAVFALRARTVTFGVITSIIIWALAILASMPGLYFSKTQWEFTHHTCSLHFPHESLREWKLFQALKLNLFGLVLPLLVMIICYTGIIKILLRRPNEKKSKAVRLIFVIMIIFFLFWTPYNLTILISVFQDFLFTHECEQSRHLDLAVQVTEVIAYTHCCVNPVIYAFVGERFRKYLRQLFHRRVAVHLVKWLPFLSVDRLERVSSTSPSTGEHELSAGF
Test: CCR1 binding protocol (SPA, [125I]-MIP-1α displacement)
Settings: cell membrane expressing human CCR1, 0.1 nM [125I]-MIP-1α, 4 hours at ambient temperature; read-out: Relative potency (IC50)
Protocol: The following protocol was used to test compounds for CCR1 binding. A mixture, including scintillation proximity assay (SPA) beads and cell membrane expressing human CCR1, was prepared in assay buffer (130 mM NaCl+5 mM KCl+1 mM MnCl+50 mM Tris HCl at pH 7.4+0.1% bovine serum albumin (BSA)) at the ratio of 50 μg/ml membrane to 10 mg/ml SPA beads. 10 μl of the mixture was transferred to each well of a 384-well assay plate yielding a final concentration for the membrane and SPA beads of 0.5 μg/well and 100 μg/well, respectively
To generate different concentrations of the test compound, compound stocks were prepared using 10 step ½ log dilutions with a high concentration of 10 mM in DMSO and the lowest concentration being DMSO only without compound. An intermediate 40× dilution was then prepared in the assay buffer. The compound was then transferred at 10 μl/well to the assay plate. 0.5 nM [^125 I]-labeled macrophage inflammatory protein-1α (MIP-1α, an endogenous CCR1 ligand) in the assay buffer was transferred to the assay plate at 5 μl/well, for a final ligand concentration of 0.1 nM. The assay plate was then centrifuged at 2500 rpm for 2 minutes and incubated for 4 hours at ambient temperature, at which time the raw data was recorded using microbeta. The IC50 was then calculated using Graphpad Prism.

| IC50 [nM] | Compound |
| --- | --- |
| < 50 | Cc1noc(-c2ccccc2)c1NC(=O)N1CCC[C@@H]1c1nnc(C)n1Cc1ccc(Cl)cc1 [Compound 123] |
| < 50 | Cc1nnc([C@H]2CCCN2C(=O)N[C@@H](C)c2cccnc2)n1Cc1ccc(Cl)cc1 [Compound 124] |
| < 50 | CC[C@H](NC(=O)N1CCC[C@@H]1c1nnc(C)n1Cc1ccc(Cl)cc1)c1ccc(C(F)(F)F)cc1 [Compound 125] |
| < 50 | Cc1onc(-c2ccccc2)c1NC(=O)N1CCC[C@@H]1c1nnc(C)n1Cc1ccc(Cl)cc1 [Compound 126] |
| < 50 | Cc1nnc([C@H]2CCCN2C(=O)N[C@H]2CCc3cc(Cl)ccc32)n1Cc1ccc(Cl)cc1 [Compound 127] |
| < 50 | Cc1nnc([C@H]2CCCN2C(=O)NC(c2ccccc2)c2ccccc2)n1Cc1ccc(Cl)cc1 [Compound 128] |
| < 50 | Cc1nnc([C@H]2CCCN2C(=O)NCc2ccc(C(F)(F)F)cc2)n1Cc1ccc(Cl)cc1 [Compound 130] |
| < 50 | Cc1nnc([C@H]2CCCN2C(=O)NC2CCc3cc(Cl)ccc32)n1Cc1ccc(Cl)cc1 (stereo partly drawn) [Compound 132] |
| < 50 | Cc1nnc([C@H]2CCCN2C(=O)Nc2ccc3ccccc3c2)n1Cc1ccc(Cl)cc1 [Compound 135] |
| 50 to 500 | Cc1nnc([C@H]2CCCN2C(=O)N[C@@H]2COCc3c(F)cccc32)n1Cc1ccc(Cl)cc1 [Compound 141] |
| 50 to 500 | Cc1nnc([C@H]2CCCN2C(=O)N[C@@H]2CCc3cc(Cl)ccc32)n1Cc1ccc(Cl)cc1 [Compound 143] |
| < 50 | Cc1nnc([C@H]2CCCN2C(=O)Nc2ccc(Cl)cc2F)n1Cc1ccc(Cl)cc1 [Compound 144] |
| 50 to 500 | Cc1nnc([C@H]2CCCN2C(=O)Nc2ccccc2C(F)(F)F)n1Cc1ccc(Cl)cc1 [Compound 146] |
| 50 to 500 | O=C(N[C@H]1CCCOc2ccc(Cl)cc21)N1CCC[C@@H]1c1nncn1Cc1ccc(Cl)cc1 [Compound 159] |
| 50 to 500 | Cc1nnc([C@H]2CCCN2C(=O)Nc2ccc(Cl)cc2)n1Cc1ccc(Cl)cc1 [Compound 160] |
| 50 to 500 | Cc1nnc([C@H]2CCCN2C(=O)N[C@H]2CCOc3c(F)ccc(F)c32)n1Cc1ccc(Cl)cc1 [Compound 161] |
| 50 to 500 | Cc1nnc([C@H]2CCCN2C(=O)Nc2ccc(Br)cc2)n1Cc1ccc(Cl)cc1 [Compound 162] |
| 50 to 500 | Cc1nnc([C@H]2CCCN2C(=O)Cc2ccc(Cl)cc2)n1Cc1ccc(Cl)cc1 [Compound 174] |
| 500 to 5000 | Cc1nnc([C@H]2CCCN2C(=O)Oc2ccc(F)cc2)n1Cc1ccc(Cl)cc1 [Compound 176] |
| < 50 | Cc1nnc([C@H]2CCCN2C(=O)NC2CCCOc3cc(C(F)(F)F)ccc32)n1Cc1ccc(Cl)cc1 (stereo partly drawn) [Compound 177] |

The remaining lines, values behind:

| Compound | IC50 [nM] |
| --- | --- |
| Cc1nnc([C@H]2CCCN2C(=O)NC(c2ccccc2)c2ccc(Cl)cc2)n1Cc1ccc(Cl)cc1 (stereo partly drawn) [Compound 129] | < 50 |
| Cc1nnc([C@H]2CCCN2C(=O)N[C@@H](C)c2ccc3ccccc3c2)n1Cc1ccc(Cl)cc1 [Compound 131] | < 50 |
| Cc1nnc([C@H]2CCCN2C(=O)Nc2ccc(C(C)(C)C)cc2)n1Cc1ccc(Cl)cc1 [Compound 133] | < 50 |
| Cc1nnc([C@H]2CCCN2C(=O)NC2CCOc3cc(C#N)ccc32)n1Cc1ccc(Cl)cc1 (stereo partly drawn) [Compound 134] | < 50 |
| Cc1nnc([C@H]2CCCN2C(=O)Nc2ccc(OC(F)(F)F)cc2)n1Cc1ccc(Cl)cc1 [Compound 136] | < 50 |
| Cc1nnc([C@H]2CCCN2C(=O)Nc2ccc3c(c2)N(C)C(=O)CO3)n1Cc1ccc(Cl)cc1 [Compound 137] | 50 to 500 |
| Cc1nnc([C@H]2CCCN2C(=O)N[C@H]2COCc3c(F)cccc32)n1Cc1ccc(Cl)cc1 [Compound 138] | 50 to 500 |
| Cc1nnc([C@H]2CCCN2C(=O)NC(C)c2cccnc2)n1Cc1ccc(Cl)cc1 (stereo partly drawn) [Compound 139] | 50 to 500 |
| Cc1nnc([C@H]2CCCN2C(=O)N[C@H](C)c2cccnc2)n1Cc1ccc(Cl)cc1 [Compound 140] | 50 to 500 |
| Cc1nnc([C@H]2CCCN2C(=O)NC2COCc3c(F)cccc32)n1Cc1ccc(Cl)cc1 (stereo partly drawn) [Compound 142] | 50 to 500 |
| Cc1nnc([C@H]2CCCN2C(=O)NCc2cccc(C(F)(F)F)c2)n1Cc1ccc(Cl)cc1 [Compound 145] | 50 to 500 |
| Cc1nnc([C@H]2CCCN2C(=O)N[C@@H]2CCCOc3ccc(Cl)cc32)n1Cc1ccc(Cl)cc1 [Compound 147] | < 50 |
| O=C(N[C@@H]1CCCOc2ccc(Cl)cc21)N1CCC[C@@H]1c1nncn1Cc1ccc(Cl)cc1 [Compound 148] | 50 to 500 |
| Cc1nnc([C@H]2CCCN2C(=O)N[C@H]2CCOc3c(F)cccc32)n1Cc1ccc(Cl)cc1 [Compound 149] | < 50 |
| Cc1cc(C)c(NC(=O)N2CCC[C@@H]2c2nnc(C)n2Cc2ccc(Cl)cc2)c(C)c1 [Compound 150] | < 50 |
| Cc1cccc(Cl)c1NC(=O)N1CCC[C@@H]1c1nnc(C)n1Cc1ccc(Cl)cc1 [Compound 151] | < 50 |
| Cc1nnc([C@H]2CCCN2C(=O)N[C@H]2CCOc3cc(F)ccc32)n1Cc1ccc(Cl)cc1 [Compound 152] | < 50 |

| Compound | IC50 [nM] |
| --- | --- |
| Cc1nnc([C@H]2CCCN2C(=O)N[C@H]2CCOc3c(F)cc(F)cc32)n1Cc1ccc(Cl)cc1 [Compound 153] | < 50 |
| Cc1nnc([C@H]2CCCN2C(=O)Nc2ccc(C(F)(F)F)cc2Cl)n1Cc1ccc(Cl)cc1 [Compound 154] | 50 to 500 |
| Cc1nnc([C@H]2CCCN2C(=O)N[C@H]2CCc3ccccc32)n1Cc1ccc(Cl)cc1 [Compound 155] | 50 to 500 |
| Cc1nnc([C@H]2CCCN2C(=O)N[C@H]2CCCOc3ccc(Cl)cc32)n1Cc1ccc(Cl)cc1 [Compound 156] | 50 to 500 |
| Cc1nnc([C@H]2CCCN2C(=O)N[C@H]2CCOc3ccc(F)cc32)n1Cc1ccc(Cl)cc1 [Compound 157] | 50 to 500 |
| Cc1cccc(C)c1NC(=O)N1CCC[C@@H]1c1nnc(C)n1Cc1ccc(Cl)cc1 [Compound 158] | 50 to 500 |
| Cc1nnc([C@H]2CCCN2C(=O)Nc2cccc(Cl)c2)n1Cc1ccc(Cl)cc1 [Compound 163] | 50 to 500 |
| Cc1nnc([C@H]2CCCN2C(=O)N[C@H]2CCOc3cccc(F)c32)n1Cc1ccc(Cl)cc1 [Compound 164] | 50 to 500 |
| Cc1nnc([C@H]2CCCN2C(=O)N[C@H]2CCOc3c(F)ccc(Cl)c32)n1Cc1ccc(Cl)cc1 [Compound 165] | 50 to 500 |
| CCc1nnc([C@H]2CCCN2C(=O)Nc2c(C)cc(C(F)(F)F)cc2C)n1Cc1ccc(Cl)cc1 [Compound 167] | < 50 |
| Cc1nnc([C@H]2CCCN2C(=O)N[C@@H](C)c2ccc(Cl)c(Cl)c2)n1Cc1ccc(Cl)cc1 [Compound 168] | < 50 |
| Cc1nnc([C@H]2CCCN2C(=O)N[C@H]2CCc3cc(C(F)(F)F)ccc32)n1Cc1ccc(Cl)cc1 [Compound 169] | < 50 |
| Cc1nnc([C@H]2CCCN2C(=O)N[C@@H](C)c2ccc(Cl)cc2)n1Cc1ccc(Cl)cc1 [Compound 170] | < 50 |
| Cc1nnc([C@H]2CCCN2C(=O)N[C@H]2CCc3ccc(C(F)(F)F)cc32)n1Cc1ccc(Cl)cc1 [Compound 171] | 50 to 500 |
| Cc1nnc([C@H]2CCCN2C(=O)N[C@H]2CCCc3ccccc32)n1Cc1ccc(Cl)cc1 [Compound 172] | 50 to 500 |
| Cc1nnc([C@H]2CCCN2C(=O)Cc2ccc(C(F)(F)F)cc2)n1Cc1ccc(Cl)cc1 [Compound 173] | 50 to 500 |
| Cc1nnc([C@H]2CCCN2C(=O)Oc2ccc(Cl)cc2)n1Cc1ccc(Cl)cc1 [Compound 175] | 500 to 5000 |

Reference: patent US8288371B2, “Ortho pyrrolidine, benzyl-substituted heterocycle CCR1 antagonists for autoimmune diseases and inflammation” (Pharmacopeia, LLC, priority 2007, dated 2012)
